One may read the IC50 as the midpoint of a concentration-inhibition curve. The term EC50 denotes the concentration needed to bring the measured effect to its halfway point.

The test system of assay [1] is Capan-1 cells (K-Ras G12V). The assay is described as follows: CellTiter-Glo cell viability, Capan-1. Type of assay: cell-based, human. Particulars: Homo sapiens, CAPAN-1, 120 h, K-Ras G12V, 5-day treatment; read-out: Capan-1 Cell Viability IC50. The gist of the method:
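Endpoint: CellTiter-Glo luminescence on day 5, following ~30 min at room temperature. Data as (sample/mean DMSO)×100, four-parameter logistic fit.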
Background: ATP-based viability assays read luminescence as a measure of living cells.

The target in assay [2] is K-Ras G12C(GMP-PNP) binding to BRAF RBD (Homo sapiens (Human), UniProt P01116+P62937, G12C). The experiment in a line: Disruption of BRAF RBD interaction with K-Ras (FRET / MOA assay), K-Ras G12C. In kind it is biochemical. Conditions: read-out: KRAS G12C FRET IC50. Put shortly:
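First, test compounds in a 10-point 3-fold series (30 μM final top) were incubated for 3 hours at 25° C with nucleotide-loaded Ras, cyclophilin A and a BRAF RBD construct. Next, Eu anti-His and allophycocyanin anti-GST detection reagents were added for 1.5 hours. Finally, IC50s were derived from loss of TR-FRET signal against DMSO.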

Assay [3] relates to K-Ras G12C (NCI-H358 cells). The assay is described as follows: Potency assay: pERK in NCI-H358 cells. Type of assay: cell-based, human. Particulars: Homo sapiens; NCI-H358 cells, 4 hours; read-out: pERK EC50 (H358 KRAS G12C). The gist of the method: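 Cells plated the day before were exposed for 4 h at 37° C, 5% CO2 to a 10-point, 3-fold DMSO dilution series (10 mM top stock), in duplicate. Phospho-ERK was read by AlphaLISA SureFire Ultra or by In-Cell Western with DRAQ5 DNA stain, and IC50 came from a 4-parameter sigmoidal fit.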

SMILES strings stand for the structures.

K-Ras G12C(GMP-PNP) binding to BRAF RBD, sequence (P01116 other isoform, or with tags, fused parts or gaps G12C): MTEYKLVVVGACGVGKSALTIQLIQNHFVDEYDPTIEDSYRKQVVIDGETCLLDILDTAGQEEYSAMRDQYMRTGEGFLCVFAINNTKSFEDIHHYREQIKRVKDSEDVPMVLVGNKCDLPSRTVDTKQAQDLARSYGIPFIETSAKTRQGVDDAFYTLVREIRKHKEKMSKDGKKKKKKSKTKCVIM
K-Ras G12C(GMP-PNP) binding to BRAF RBD, sequence (P62937 whole entry): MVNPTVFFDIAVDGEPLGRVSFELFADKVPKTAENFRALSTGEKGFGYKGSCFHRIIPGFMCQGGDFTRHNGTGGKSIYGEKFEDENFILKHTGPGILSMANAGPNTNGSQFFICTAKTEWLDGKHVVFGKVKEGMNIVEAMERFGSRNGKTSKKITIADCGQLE

On to `CCn1c(-c2cccnc2[C@H](C)OC)c2c3cc(ccc31)-c1csc(n1)C[C@H](NC(=O)[C@H](C(C)C)N(C)C(=O)N1C[C@@H]3OCCN(C)[C@@H]3C1)C(=O)N1CCC[C@H](N1)C(=O)OCC(C)(C)C2` [Compound A444], for which the IC50 in assay [1] and in assay [2] was 10 to 100 nM in each case. The EC50 in assay [3] is less than 5000 nM.
For the molecule `CCn1c(-c2cccnc2[C@H](C)OC)c2c3cc(ccc31)-c1cc(O)cc(c1)C[C@H](NC(=O)[C@H](C(C)C)N(C)C(=O)[C@@H]1OCC[C@H]1c1ccccc1)C(=O)N1CCC[C@H](N1)C(=O)OCC(C)(C)C2` [Compound A584], the IC50 in assay [1] lay within 100 to 1000 nM; in assay [2], 10 to 100 nM. In assay [3], the EC50 is less than 5000 nM.

Values taken from patent US20250195521A1 (Revolution Medicines, Inc., priority 2020, published 2025).
